These results are taken from US6706740B2, “Fungicidal heterocyclic aromatic amides and their compositions, methods of use and preparation” (Dow AgroSciences LLC, priority 1999, dated 2004).

In general, inhibition refers to the share of the control response that was lost under treatment.

The test system of test [1] is Magnaporthe grisea (Pyricularia oryzae—PYRIOR). Briefly: microbe, parasite or virus in culture. Format: cell-based. The conditions noted are these: Pyricularia oryzae, read-out: PYRIOR in vitro Growth Inhibition.
Test [2] has as its system Rhizoctonia solani (RHIZSO). Nature of the test: microbe, parasite or virus in culture. The conditions noted are these: Rhizoctonia solani, read-out: RHIZSO in vitro Growth Inhibition. Format: cell-based.
Test [3] concerns Mycosphaerella graminicola (Septoria tritici—SEPTTR). Briefly: In vitro fungal growth inhibition, Mycosphaerella graminicola (SEPTTR). The conditions noted are these: Zymoseptoria tritici; 25 ppm in growth medium; read-out: SEPTTR in vitro Growth Inhibition. Format: cell-based.
Test [4] concerns Stagonospora nodorum (Leptosphaeria nodorum—LEPTNO). Nature of the test: In vitro fungal growth inhibition, Stagonospora nodorum (LEPTNO). Format: cell-based. The conditions noted are these: Leptosphaeria; 25 ppm in growth medium; read-out: LEPTNO in vitro Growth Inhibition.
The subject of the next test is Ustilago maydis (USTIMA). Nature of the test: microbe, parasite or virus in culture. Format: cell-based. The conditions noted are these: Mycosarcoma maydis, read-out: USTIMA in vitro Growth Inhibition.
Test [5] deals with Phytophthora infestans (PHYTIN). Nature of the test: microbe, parasite or virus in culture. Format: cell-based. The conditions noted are these: Phytophthora infestans, read-out: PHYTIN in vitro Growth Inhibition.
Test [6] concerns Phytophthora infestans—PHYTIN. Nature of the test: whole plant or invertebrate. Format: in vivo. The conditions noted are these: Phytophthora, in Solanum lycopersicum, 24 h, read-out: PHYTIN in vivo 1 Day Protectant.
The test system of test [7] is Puccinia recondita—PUCCRT. Nature of the test: Brown Rust of Wheat, in vivo whole plant, 24 Hour Protectant. The conditions noted are these: Puccinia; 100 ppm spray, wheat, 24 hour protectant; control of fungal infection vs untreated plants; read-out: PUCCRT in vivo 1 Day Protectant.
The subject of another test is Erysiphe graminis—ERYSGT. Nature of the test: Powdery Mildew of Wheat, in vivo whole plant, 24 Hour Protectant. The conditions noted are these: Erysiphe; 100 ppm spray, wheat, 24 hour protectant; control of fungal infection vs untreated plants; read-out: ERYSGT in vivo 1 Day Protectant.
The subject of a further test is Septoria tritici—SEPTTR. Nature of the test: Leaf Blotch of Wheat, in vivo whole plant, 24 Hour Protectant. The conditions noted are these: Zymoseptoria tritici, 24 h, 100 ppm spray, wheat, 24 hour protectant; control of fungal infection vs untreated plants; read-out: SEPTTR in vivo 1 Day Protectant.
Test [8] concerns Leptosphaeria nodorum—LEPTNO. Nature of the test: Glume Blotch of Wheat, in vivo whole plant, 24 Hour Protectant. The conditions noted are these: 100 ppm spray, wheat, 24 hour protectant, control of fungal infection vs untreated plants; for pest or weed control at 100 ppm: Leptosphaeria, read-out: LEPTNO in vivo 1 Day Protectant.

In the case of `COc1ccnc(C(=O)Nc2ccccc2Oc2cccc(Cl)c2)c1O` [Compound 437], the inhibition at 25 ppm in [1] was below 80%; in test [2], below 80%; in [3], above 80%; in test [4], below 80%; with Ustilago maydis (USTIMA), below 80%; in test [5] it was below 80%. The pest or weed control at 100 ppm is 25 to 74% in [6]; below 25% in test [7]; below 25% in the test with Erysiphe graminis—ERYSGT; below 25% in the test on Septoria tritici—SEPTTR; below 25% in test [8].

Consider `COc1ccnc(C(=O)Nc2ccccc2Oc2ccc(Cl)cc2)c1O` [Compound 438], for which the inhibition at 25 ppm in [1] was above 80%; in test [2] it was below 80%; in [3] it was above 80%; in test [4], above 80%; with Ustilago maydis (USTIMA), below 80%; in [5], below 80%. Further, the pest or weed control at 100 ppm (in test [6]; in [7]; in the test with Erysiphe graminis—ERYSGT; in the test with Septoria tritici—SEPTTR; in test [8]) was below 25% each time.

As to `COc1ccnc(C(=O)Nc2cccc(Oc3ccccc3Cl)c2)c1O` [Compound 439], the inhibition at 25 ppm (in test [1]; in test [2]; in test [3]; in test [4]; in the test on Ustilago maydis (USTIMA); in test [5]) was below 80% each time. For the same compound, the pest or weed control at 100 ppm in [6] was below 25%; in test [7], 25 to 74%; in the test with Erysiphe graminis—ERYSGT, below 25%; in the test with Septoria tritici—SEPTTR, below 25%; in test [8] it was 25 to 74%.

Consider `COc1ccnc(C(=O)Nc2cccc(Oc3ccc(Cl)cc3)c2)c1O` [Compound 440], for which the inhibition at 25 ppm is above 80% in [1]; below 80% in [2]; above 80% in test [3]; above 80% in [4]; below 80% with Ustilago maydis (USTIMA); below 80% in test [5]. For the same compound, the pest or weed control at 100 ppm was below 25% in [6], 25 to 74% in [7], below 25% with Erysiphe graminis—ERYSGT and 25 to 74% in the test on Septoria tritici—SEPTTR. In addition, the “LEPTNO in vivo 1 Day Protectant” value in test [8] was “+ +”.

As for `COc1ccnc(C(=O)Nc2ccc(Oc3ccccc3Cl)cc2)c1O` [Compound 441], the inhibition at 25 ppm is below 80% in test [1]; below 80% in test [2]; above 80% in test [3]; below 80% in test [4]; below 80% in the test on Ustilago maydis (USTIMA); below 80% in test [5]. Further, the pest or weed control at 100 ppm (in test [6]; in test [7]; in the test with Erysiphe graminis—ERYSGT; in the test on Septoria tritici—SEPTTR; in [8]) was below 25% in each case.

As to `COc1ccnc(C(=O)Nc2ccc(Oc3cccc(Cl)c3)cc2)c1O` [Compound 442], the inhibition at 25 ppm in test [1] was above 80%; in test [2], below 80%; in test [3] it was above 80%; in test [4] it was above 80%; in the test with Ustilago maydis (USTIMA) it was below 80%; in test [5] it was below 80%. The pest or weed control at 100 ppm in test [6] was 25 to 74%; in test [7] it was 25 to 74%; in the test on Erysiphe graminis—ERYSGT, below 25%; in the test with Septoria tritici—SEPTTR it was below 25%; in [8], below 25%.

Turning to `COc1ccnc(C(=O)Nc2ccc(Oc3ccc(Cl)cc3)cc2)c1O` [Compound 443], the inhibition at 25 ppm in test [1] is below 80%; in test [2] it was below 80%; in test [3], below 80%; in [4] it was above 80%; in the test with Ustilago maydis (USTIMA) it was below 80%; in test [5], below 80%. Besides, the pest or weed control at 100 ppm in test [6] is below 25%; in test [7], 25 to 74%; in the test with Erysiphe graminis—ERYSGT, below 25%; in the test with Septoria tritici—SEPTTR it was below 25%; in test [8] it was below 25%.

With `COc1ccnc(C(=O)Nc2ccc(Sc3ccc(C(F)(F)F)cc3)cc2)c1O` [Compound 446], the inhibition at 25 ppm (in test [1]; in [2]; in test [3]; in test [4]; with Ustilago maydis (USTIMA); in [5]) was below 80% in each case. Besides, the pest or weed control at 100 ppm in [6] was 25 to 74%; in test [7] it was below 25%; in the test on Erysiphe graminis—ERYSGT, below 25%; with Septoria tritici—SEPTTR it was below 25%; in [8] it was below 25%.

`COc1ccnc(C(=O)Nc2ccc(OCc3cccc(C(F)(F)F)c3)cc2)c1O` [Compound 447]: the inhibition at 25 ppm (in [1]; in [2]; in test [3]; in [4]; in the test with Ustilago maydis (USTIMA); in test [5]) was below 80% each time. Besides, the pest or weed control at 100 ppm in test [6] is below 25%; in test [7], below 25%; in the test on Erysiphe graminis—ERYSGT it was below 25%; in the test with Septoria tritici—SEPTTR it was below 25%; in [8], 25 to 74%.

As for `COc1ccnc(C(=O)Nc2ccc(OCc3ccc(C(F)(F)F)cc3)cc2)c1O` [Compound 448], the inhibition at 25 ppm in test [1] is below 80%; in [2] it was below 80%; in [3], below 80%; in [4], below 80%; in the test on Ustilago maydis (USTIMA) it was above 80%; in test [5], below 80%. The pest or weed control at 100 ppm in [6] was below 25%; in test [7], 25 to 74%; in the test with Erysiphe graminis—ERYSGT, below 25%; in the test on Septoria tritici—SEPTTR, 25 to 74%. Further, the “LEPTNO in vivo 1 Day Protectant” value in test [8] is “+ +”.

As to `COc1ccnc(C(=O)Nc2ccc(C(=O)Nc3cccc(C(F)(F)F)c3)cc2)c1O` [Compound 449], the inhibition at 25 ppm in [1] was above 80%; in test [2], above 80%; in [3], below 80%; in [4] it was below 80%; in the test on Ustilago maydis (USTIMA), below 80%; in test [5] it was below 80%. For the same compound, the pest or weed control at 100 ppm is below 25% in test [6]; below 25% in test [7]; below 25% in the test on Erysiphe graminis—ERYSGT; 25 to 74% in the test on Septoria tritici—SEPTTR; 25 to 74% in test [8].

With `COc1ccnc(C(=O)Nc2ccc(C(=O)Oc3ccc(C(F)(F)F)cc3)cc2)c1O` [Compound 452], the inhibition at 25 ppm (in test [1]; in [2]; in [3]; in test [4]; with Ustilago maydis (USTIMA); in [5]) was below 80% throughout. The pest or weed control at 100 ppm in test [6] is below 25%; in test [7], below 25%; with Erysiphe graminis—ERYSGT, below 25%; in the test with Septoria tritici—SEPTTR, 25 to 74%; in [8], 25 to 74%.

For `COc1ccnc(C(=O)Nc2cc(C)c(OC(=O)C(C)C)c(C)c2)c1O` [Compound 455], the inhibition at 25 ppm in test [1] was below 80%; in test [2] it was below 80%; in test [3], below 80%; in [4], above 80%; in the test with Ustilago maydis (USTIMA), above 80%; in test [5], below 80%. Besides, the pest or weed control at 100 ppm is below 25% in test [6]; below 25% in test [7]; below 25% in the test with Erysiphe graminis—ERYSGT; 25 to 74% with Septoria tritici—SEPTTR; 25 to 74% in test [8].

As to `COc1ccnc(C(=O)Nc2cc(C)c(OC(=O)c3ccccc3)c(C)c2)c1O` [Compound 456], the inhibition at 25 ppm in [1] was below 80%; in test [2], below 80%; in test [3] it was above 80%; in test [4], above 80%; in the test on Ustilago maydis (USTIMA), below 80%; in test [5] it was below 80%. Also, the pest or weed control at 100 ppm is below 25% in [6]; below 25% in test [7]; below 25% in the test on Erysiphe graminis—ERYSGT; 25 to 74% with Septoria tritici—SEPTTR; below 25% in [8].
